In ChEMBL document CHEMBL1649274, “Mutational upregulation of a resistance-nodulation-cell division-type multidrug efflux pump, SdeAB, upon exposure to a biocide, cetylpyridinium chloride, and antibiotic resistance in Serratia marcescens” (Antimicrob Agents Chemother, 2009):
≈ marks a conversion by molar mass, not a printed value.

Tests used:
Serratia marcescens [1] = assay: Antimicrobial activity against cetylpyridinium chloride-resistant Serratia marcescens 01 by broth dilution method; type: functional
Serratia marcescens [2] = assay: microbe, parasite or virus in culture; type: functional; details: ATCC 13880
Description: (§1) Antimicrobial activity against Serratia marcescens ATCC 13880 by broth dilution method

Serratia marcescens [3] = assay: Antimicrobial activity against cetylpyridinium chloride-sensitive Serratia marcescens 71 by broth dilution method; type: functional
Serratia marcescens [4] = assay: Antimicrobial activity against cetylpyridinium chloride-sensitive Serratia marcescens 79 by broth dilution method; type: functional
Serratia marcescens [5] = assay: Antimicrobial activity against cetylpyridinium chloride-sensitive Serratia marcescens 71 harboring plasmid STV29 expressing hasF gene by broth dilution method; type: functional
Serratia marcescens [6] = assay: Antimicrobial activity against cetylpyridinium chloride-sensitive Serratia marcescens 79 harboring plasmid STV29 by broth dilution method; type: functional
Serratia marcescens [7] = assay: Antimicrobial activity against cetylpyridinium chloride-resistant Serratia marcescens HMS011 by broth dilution method; type: functional
Serratia marcescens [8] = assay: Antimicrobial activity against cetylpyridinium chloride-sensitive Serratia marcescens 71 harboring plasmid STV29 by broth dilution method; type: functional
Serratia marcescens [9] = assay: Antimicrobial activity against Serratia marcescens ATCC 13880 harboring plasmid STV29 by broth dilution method; type: functional
Serratia marcescens [10] = assay: Antimicrobial activity against cetylpyridinium chloride-resistant Serratia marcescens 011 harboring plasmid STV28 expressing sdeB gene by broth dilution method; type: functional
Serratia marcescens [11] = assay: Antimicrobial activity against cetylpyridinium chloride-resistant Serratia marcescens 01 harboring plasmid STV29 by broth dilution method; type: functional
Serratia marcescens [12] = assay: Antimicrobial activity against cetylpyridinium chloride-sensitive Serratia marcescens 79 harboring plasmid STV29 expressing hasF gene by broth dilution method; type: functional
Serratia marcescens [13] = assay: Antimicrobial activity against cetylpyridinium chloride-resistant Serratia marcescens 011 by broth dilution method; type: functional
Serratia marcescens [14] = assay: Antimicrobial activity against cetylpyridinium chloride-resistant Serratia marcescens HMS011 harboring plasmid STV28 expressing sdeB gene by broth dilution method; type: functional
Serratia marcescens [15] = assay: Cellular uptake at Serratia marcescens ATCC 13880 at 50 ug/ml after 60 mins by spectrofluorometry in presence of […] proteon conductor CCCP; type: ADME, organism-based; details: in vivo, 1 h
Serratia marcescens [16] = assay: Cellular uptake at cetylpyridinium chloride-resistant Serratia marcescens 01 at 50 ug/ml after 60 mins by spectrofluorometry; type: ADME, organism-based; details: in vivo, 1 h
Serratia marcescens [17] = assay: Cellular uptake at cetylpyridinium chloride-resistant Serratia marcescens 01 at 50 ug/ml after 60 mins by spectrofluorometry in presence of […] proteon conductor CCCP; type: ADME, organism-based; details: in vivo, 1 h
Serratia marcescens [18] = assay: Cellular uptake at Serratia marcescens ATCC 13880 at 50 ug/ml after 60 mins by spectrofluorometry; type: ADME, organism-based; details: in vivo, 1 h
Serratia marcescens [19] = details: ATCC 13880
Description: as §1

Serratia marcescens [20] = details: 71
Serratia marcescens [21] = details: 79
Serratia marcescens [22] = details: 01

Compound | MIC (Serratia marcescens [1]) | MIC (Serratia marcescens [2]) | MIC (Serratia marcescens [3]) | MIC (Serratia marcescens [4]) | MIC (Serratia marcescens [5]) | MIC (Serratia marcescens [6]) | MIC (Serratia marcescens [7]) | MIC (Serratia marcescens [8]) | MIC (Serratia marcescens [9]) | MIC (Serratia marcescens [10]) | MIC (Serratia marcescens [11]) | MIC (Serratia marcescens [12]) | MIC (Serratia marcescens [13]) | MIC (Serratia marcescens [14]) | further results
N=C(NCCCCCCNC(=N)NC(=N)Nc1ccc(Cl)cc1)NC(=N)Nc1ccc(Cl)cc1.O=C(O)[C@H](O)[C@@H](O)[C@H](O)[C@H](O)CO | 100 µg/mL | 25 µg/mL | 3.13 µg/mL | 3.13 µg/mL |  |  |  |  |  |  |  |  |  |  | 
CCCCCCCCCCCC[n+]1ccccc1.[I-] | 100 µg/mL | 100 µg/mL | 12.5 µg/mL | 6.25 µg/mL |  |  |  |  |  |  |  |  |  |  | 
CC1(C)S[C@@H]2[C@H](NC(=O)[C@H](N)c3ccccc3)C(=O)N2[C@H]1C(=O)O [AMPICILLIN] | 6.25 µg/mL (≈ 17.9 µM) | 100 µg/mL (≈ 286 µM) | 6.25 µg/mL (≈ 17.9 µM) | 6.25 µg/mL (≈ 17.9 µM) |  |  |  |  |  |  |  |  |  |  | 
CC1(C)S[C@@H]2[C@H](NC(=O)C(C(=O)O)c3ccccc3)C(=O)N2[C@H]1C(=O)O (stereo not given in full) [CARBENICILLIN] | 3.13 µg/mL (≈ 8.27 µM) | 6.25 µg/mL (≈ 16.5 µM) | 3.13 µg/mL (≈ 8.27 µM) | 3.13 µg/mL (≈ 8.27 µM) | 3.13 µg/mL (≈ 8.27 µM) | 3.13 µg/mL (≈ 8.27 µM) | 6.25 µg/mL (≈ 16.5 µM) | 3.13 µg/mL (≈ 8.27 µM) | 6.25 µg/mL (≈ 16.5 µM) | 3.13 µg/mL (≈ 8.27 µM) | 3.13 µg/mL (≈ 8.27 µM) | 3.13 µg/mL (≈ 8.27 µM) | 3.13 µg/mL (≈ 8.27 µM) | 6.25 µg/mL (≈ 16.5 µM) | 
O=C(N[C@H](CO)[C@H](O)c1ccc([N+](=O)[O-])cc1)C(Cl)Cl [CHLORAMPHENICOL] | 100 µg/mL (≈ 309 µM) | 12.5 µg/mL (≈ 38.7 µM) | 3.13 µg/mL (≈ 9.69 µM) | 3.13 µg/mL (≈ 9.69 µM) | > 400 µg/mL | > 400 µg/mL | 12.5 µg/mL (≈ 38.7 µM) | > 400 µg/mL | > 400 µg/mL | > 400 µg/mL | > 400 µg/mL | > 400 µg/mL | 25 µg/mL (≈ 77.4 µM) | > 400 µg/mL | 
CCn1cc(C(=O)O)c(=O)c2cc(F)c(N3CCNCC3)nc21 [ENOXACIN] | 3.13 µg/mL (≈ 9.77 µM) | 0.2 µg/mL (≈ 0.624 µM) | 0.1 µg/mL (≈ 0.312 µM) | 0.1 µg/mL (≈ 0.312 µM) |  |  |  |  |  |  |  |  |  |  | 
NC[C@H]1O[C@H](O[C@H]2[C@H](O)[C@@H](O[C@H]3O[C@H](CO)[C@@H](O)[C@H](N)[C@H]3O)[C@H](N)C[C@@H]2N)[C@H](O)[C@@H](O)[C@@H]1O [KANAMYCIN] | 1.56 µg/mL (≈ 3.22 µM) | 1.56 µg/mL (≈ 3.22 µM) | > 400 µg/mL | > 400 µg/mL |  |  | 1.56 µg/mL (≈ 3.22 µM) |  | 1.56 µg/mL (≈ 3.22 µM) | 1.56 µg/mL (≈ 3.22 µM) | 1.56 µg/mL (≈ 3.22 µM) |  | 1.56 µg/mL (≈ 3.22 µM) | 1.56 µg/mL (≈ 3.22 µM) | 
CCn1cc(C(=O)O)c(=O)c2cc(F)c(N3CCNC(C)C3)c(F)c21 (stereo not given) [LOMEFLOXACIN] | 1.56 µg/mL (≈ 4.44 µM) | 0.2 µg/mL (≈ 0.569 µM) | 0.05 µg/mL (≈ 0.142 µM) | 0.05 µg/mL (≈ 0.142 µM) | 1.56 µg/mL (≈ 4.44 µM) | 0.05 µg/mL (≈ 0.142 µM) | 0.2 µg/mL (≈ 0.569 µM) | 0.05 µg/mL (≈ 0.142 µM) | 0.2 µg/mL (≈ 0.569 µM) | 1.56 µg/mL (≈ 4.44 µM) | 1.56 µg/mL (≈ 4.44 µM) | 1.56 µg/mL (≈ 4.44 µM) | 0.78 µg/mL (≈ 2.22 µM) | 0.2 µg/mL (≈ 0.569 µM) | 
CCn1cc(C(=O)O)c(=O)c2ccc(C)nc21 [NALIDIXIC ACID] | 12.5 µg/mL (≈ 53.8 µM) | 12.5 µg/mL (≈ 53.8 µM) | 12.5 µg/mL (≈ 53.8 µM) | 12.5 µg/mL (≈ 53.8 µM) |  |  |  |  |  |  |  |  |  |  | 
CCn1cc(C(=O)O)c(=O)c2cc(F)c(N3CCNCC3)cc21 [NORFLOXACIN] | 3.13 µg/mL (≈ 9.8 µM) | 0.2 µg/mL (≈ 0.626 µM) | 0.05 µg/mL (≈ 0.157 µM) | 0.05 µg/mL (≈ 0.157 µM) | 3.13 µg/mL (≈ 9.8 µM) | 0.05 µg/mL (≈ 0.157 µM) | 0.2 µg/mL (≈ 0.626 µM) | 0.05 µg/mL (≈ 0.157 µM) | 0.2 µg/mL (≈ 0.626 µM) | 3.13 µg/mL (≈ 9.8 µM) | 3.13 µg/mL (≈ 9.8 µM) | 3.13 µg/mL (≈ 9.8 µM) | 0.78 µg/mL (≈ 2.44 µM) | 0.2 µg/mL (≈ 0.626 µM) | Drug uptake (Serratia marcescens [15]): 250 a.u.; Drug uptake (Serratia marcescens [16]): 10 a.u.; Drug uptake (Serratia marcescens [17]): 250 a.u.; Drug uptake (Serratia marcescens [18]): 60 a.u.
CC1COc2c(N3CCN(C)CC3)c(F)cc3c(=O)c(C(=O)O)cn1c23 (stereo not given) [OFLOXACIN] | 3.13 µg/mL (≈ 8.66 µM) | 0.1 µg/mL (≈ 0.277 µM) | 0.05 µg/mL (≈ 0.138 µM) | 0.05 µg/mL (≈ 0.138 µM) |  |  |  |  |  |  |  |  |  |  | 
CCn1cc(C(=O)O)c(=O)c2cnc(N3CCNCC3)nc21 [PIPEMIDIC ACID] | 25 µg/mL (≈ 82.4 µM) | 3.13 µg/mL (≈ 10.3 µM) | 0.78 µg/mL (≈ 2.57 µM) | 0.78 µg/mL (≈ 2.57 µM) | 12.5 µg/mL (≈ 41.2 µM) | 0.78 µg/mL (≈ 2.57 µM) | 3.13 µg/mL (≈ 10.3 µM) | 0.78 µg/mL (≈ 2.57 µM) | 3.13 µg/mL (≈ 10.3 µM) | 25 µg/mL (≈ 82.4 µM) | 25 µg/mL (≈ 82.4 µM) | 12.5 µg/mL (≈ 41.2 µM) | 6.25 µg/mL (≈ 20.6 µM) | 3.13 µg/mL (≈ 10.3 µM) | 
CN[C@@H]1[C@H](O[C@H]2[C@H](O[C@H]3[C@H](O)[C@@H](O)[C@H](N=C(N)N)[C@@H](O)[C@@H]3N=C(N)N)O[C@@H](C)[C@]2(O)C=O)O[C@@H](CO)[C@H](O)[C@H]1O [STREPTOMYCIN] | 3.13 µg/mL (≈ 5.38 µM) | 3.13 µg/mL (≈ 5.38 µM) | 1.56 µg/mL (≈ 2.68 µM) | 1.56 µg/mL (≈ 2.68 µM) |  |  |  |  |  |  |  |  |  |  | 
CN(C)[C@@H]1C(O)=C(C(N)=O)C(=O)[C@@]2(O)C(O)=C3C(=O)c4c(O)cccc4[C@@](C)(O)[C@H]3C[C@@H]12 [TETRACYCLINE] | 100 µg/mL (≈ 225 µM) | 50 µg/mL (≈ 113 µM) | 3.13 µg/mL (≈ 7.04 µM) | 3.13 µg/mL (≈ 7.04 µM) | 50 µg/mL (≈ 113 µM) | 3.13 µg/mL (≈ 7.04 µM) | 50 µg/mL (≈ 113 µM) | 3.13 µg/mL (≈ 7.04 µM) | 50 µg/mL (≈ 113 µM) | 100 µg/mL (≈ 225 µM) | 100 µg/mL (≈ 225 µM) | 50 µg/mL (≈ 113 µM) | 100 µg/mL (≈ 225 µM) | 50 µg/mL (≈ 113 µM) | 
GENTAMICIN |  |  |  |  |  |  |  |  |  |  |  |  |  |  | MIC (Serratia marcescens [19]): 1.56 µg/mL; MIC (Serratia marcescens [20]): 1.56 µg/mL; MIC (Serratia marcescens [21]): 1.56 µg/mL; MIC (Serratia marcescens [22]): 1.56 µg/mL
